For 27 compounds, IC50 results are on record in patent US20260102383A1, “LPAR1 Inhibitors” (AbbVie Inc., priority 2024, published 2026).

The structures appear in SMILES notation.

In this experiment the target is T1, human LPAR1 (Homo sapiens, UniProt Q92633).
T1 construct: host or cells: TangoEDG2-bla U2OS cells
T1 sequence (Q92633 whole entry): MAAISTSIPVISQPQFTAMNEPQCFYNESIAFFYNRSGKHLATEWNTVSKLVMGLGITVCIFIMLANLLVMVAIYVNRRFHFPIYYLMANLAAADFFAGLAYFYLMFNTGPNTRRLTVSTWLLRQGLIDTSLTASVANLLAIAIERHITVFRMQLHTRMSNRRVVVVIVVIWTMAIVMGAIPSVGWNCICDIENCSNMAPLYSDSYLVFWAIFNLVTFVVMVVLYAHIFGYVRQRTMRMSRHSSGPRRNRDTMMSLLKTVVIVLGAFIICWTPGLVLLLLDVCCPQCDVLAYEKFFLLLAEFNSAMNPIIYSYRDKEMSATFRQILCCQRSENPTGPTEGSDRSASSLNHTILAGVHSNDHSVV
In words: Arrestin assay (Arrestin Reporter EDG2-bla U2OS), inhibition of LPA-stimulated signal. The format is cell-based. The following applies: TangoEDG2-bla U2OS cells expressing human LPAR1; 0.25 μM LPA; read-out: Arrestin Reporter EDG2-bla U2OS Human Merged IC50. A digest of the protocol: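 IC50 comes from a variable-slope 4-parameter fit of % inhibition, calculated from the beta-lactamase FRET ratio (emission 460/530 nm, excitation 409 nm, 2 h development at RT). Compounds, 10 μM down to 0.00006 μM in 3-fold steps, were given 1 h before 0.25 μM final LPA for 3 h in TangoEDG2-bla U2OS cells.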
Take `CC(C)c1ccnn1C1(C(=O)Nc2ccc(Cl)cc2OC(F)F)CCN(C2(CC(=O)O)CCOCC2)CC1` [Compound 128, 2-[4-[4-[[4-chloro-2-(difluoromethoxy)phenyl]carbamoyl]-4-(5-isopropylpyrazol-1-yl)-1-piperidyl]tetrahydropyran-4-yl]acetic acid]: the half-maximal inhibitory concentration (IC50) turned out to be 56 nM.

As for `CC(C)c1ccnn1C1(C(=O)Nc2ccc(Cl)cc2OC(F)F)CCN(CC(Cn2cccn2)C(=O)O)CC1` (stereo not drawn) [Compound 129, 2-[[4-[[4-chloro-2-(difluoromethoxy)phenyl]carbamoyl]-4-(5-isopropylpyrazol-1-yl)-1-piperidyl]methyl]-3-pyrazol-1-yl-propanoic acid], the half-inhibitory concentration (IC50) is 34.7 nM.

Regarding `CC(C)c1ccnn1C1(C(=O)Nc2ccc(Cl)cc2OC(F)F)CCN(C[C@@H](C)C(C)(C)C(=O)O)CC1` [Compound 130], the half-inhibitory concentration (IC50) came out at 45.7 nM.

Consider `COC(=O)N[C@]1(C(=O)O)C[C@@H](N2CCC(C(=O)Nc3ccc(Cl)cc3OC(F)F)(n3nccc3C(C)C)CC2)C1` [Compound 131], for which the IC50 stood at 134 nM.

In the case of `CC(C)c1ccnn1C1(C(=O)Nc2ccc(Cl)cc2OC(F)F)CCN([C@H]2C[C@@](NS(C)(=O)=O)(C(=O)O)C2)CC1` [Compound 132, (1r,3r)-3-[4-[[4-chloro-2-(difluoromethoxy)phenyl]carbamoyl]-4-(5-isopropylpyrazol-1-yl)-1-piperidyl]-1-(methanesulfonamido) cyclobutanecarboxylic acid], the IC50 was 178 nM.

As for `CC(C)c1ccnn1C1(C(=O)Nc2ccc(Cl)cc2OC(F)F)CCN(CC(CCO)C(=O)O)CC1` (stereo not drawn) [Compound 133, 2-[[4-[[4-chloro-2-(difluoromethoxy)phenyl]carbamoyl]-4-(5-isopropylpyrazol-1-yl)-1-piperidyl]methyl]-4-hydroxy-butanoic acid], the concentration for half-maximal inhibition (IC50) was determined as 74.8 nM.

With `CCOC(CN1CCC(C(=O)Nc2ccc(Cl)cc2OC(F)F)(n2nccc2C(C)C)CC1)C(=O)O` (stereo not drawn) [Compound 134, 3-[4-[[4-chloro-2-(difluoromethoxy)phenyl]carbamoyl]-4-(5-isopropylpyrazol-1-yl)-1-piperidyl]-2-ethoxy-propanoic acid], the half-inhibitory concentration (IC50) turned out to be 71.5 nM.

As for `COCOCC(CN1CCC(C(=O)Nc2ccc(Cl)cc2OC(F)F)(n2nccc2C(C)C)CC1)C(=O)O` (stereo not drawn) [Compound 135, 2-[[4-[[4-chloro-2-(difluoromethoxy)phenyl]carbamoyl]-4-(5-isopropylpyrazol-1-yl)-1-piperidyl]methyl]-3-(methoxymethoxy) propanoic acid], the IC50 amounted to 76.9 nM.

In the case of `CC(C)c1ccnn1C1(C(=O)Nc2ccc(Cl)cc2OC(F)F)CCN(CC(C(=O)O)C2CCOC2)CC1` (stereo not drawn) [Compound 136, 3-[4-[[4-chloro-2-(difluoromethoxy)phenyl]carbamoyl]-4-(5-isopropylpyrazol-1-yl)-1-piperidyl]-2-tetrahydrofuran-3-yl-propanoic acid], the 50% inhibitory concentration (IC50) was found to be 46.7 nM.

In the case of `CC(C)c1ccnn1C1(C(=O)Nc2ccc(Cl)cc2OC(F)F)CCN([C@@H]2CO[C@@H](C(=O)O)C2)CC1` [Compound 138, (2R,4S)-4-[4-[[4-chloro-2-(difluoromethoxy)phenyl]carbamoyl]-4-(5-isopropylpyrazol-1-yl)-1-piperidyl]tetrahydrofuran-2-carboxylic acid], the IC50 stood at 72 nM.

On to `CC(C)c1ccnn1C1(C(=O)Nc2ccc(Cl)cc2OC(F)F)CCN([C@H]2CO[C@@H](C(=O)O)C2)CC1` [Compound 139, (2R,4R)-4-[4-[[4-chloro-2-(difluoromethoxy)phenyl]carbamoyl]-4-(5-isopropylpyrazol-1-yl)-1-piperidyl]tetrahydrofuran-2-carboxylic acid], for which the IC50 came to 53.7 nM.

Take `CC(C)c1c(F)cnn1C1(C(=O)Nc2ccc(Cl)cc2OC(F)F)CCN(C[C@H](C(=O)O)C2CCOCC2)CC1` [Compound 141, (28)-3-[4-[[4-chloro-2-(difluoromethoxy)phenyl]carbamoyl]-4-(4-fluoro-5-isopropyl-pyrazol-1-yl)-1-piperidyl]-2-tetrahydropyran-4-yl-propanoic acid]: the IC50 is 25.7 nM.

For `COCCC(CN1CCC(C(=O)Nc2ccc(Cl)cc2OC(F)F)(n2nccc2C(C)C)CC1)C(=O)O` (stereo not drawn) [Compound 142, 2-[[4-[[4-chloro-2-(difluoromethoxy)phenyl]carbamoyl]-4-(5-isopropylpyrazol-1-yl)-1-piperidyl]methyl]-4-methoxy-butanoic acid], the half-inhibitory concentration (IC50) is 37.9 nM.

`C=C(CN1CCC(C(=O)Nc2ccc(Cl)cc2OC(F)F)(n2nccc2C(C)C)CC1)C(=O)O` [Compound 143, 2-[[4-[[4-chloro-2-(difluoromethoxy)phenyl]carbamoyl]-4-(5-isopropylpyrazol-1-yl)-1-piperidyl]methyl]prop-2-enoic acid]: the IC50 was 32.2 nM.

On to `CCO[C@H](CN1CCC(C(=O)Nc2ccc(Cl)cc2OC(F)F)(n2nccc2C(C)C)CC1)C(=O)O` [Compound 144, (2R)-3-[4-[[4-chloro-2-(difluoromethoxy)phenyl]carbamoyl]-4-(5-isopropylpyrazol-1-yl)-1-piperidyl]-2-ethoxy-propanoic acid], for which the IC50 worked out at 55.9 nM.

With `COC1CCC(C(CN2CCC(C(=O)Nc3ccc(Cl)cc3OC(F)F)(n3nccc3C(C)C)CC2)C(=O)O)CC1` (stereo not drawn) [Compound 145, 3-[4-[[4-chloro-2-(difluoromethoxy)phenyl]carbamoyl]-4-(5-isopropylpyrazol-1-yl)-1-piperidyl]-2-(4-methoxycyclohexyl) propanoic acid], the IC50 was 40.9 nM.

On to `CC(C)c1ccnn1C1(C(=O)Nc2ccc(Cl)cc2OC(F)F)CCN(CC(CC#N)C(=O)O)CC1` (stereo not drawn) [Compound 146, 2-[[4-[[4-chloro-2-(difluoromethoxy)phenyl]carbamoyl]-4-(5-isopropylpyrazol-1-yl)-1-piperidyl]methyl]-3-cyano-propanoic acid], for which the IC50 was 15.6 nM.

For the compound `CC(C)c1ccnn1C1(C(=O)Nc2ccc(Cl)cc2OC(F)F)CCN(CC(C(=O)O)c2cnn(C)c2)CC1` (stereo not drawn) [Compound 147, 3-[4-[[4-chloro-2-(difluoromethoxy)phenyl]carbamoyl]-4-(5-isopropylpyrazol-1-yl)-1-piperidyl]-2-(1-methylpyrazol-4-yl)propanoic acid], the IC50 is 167 nM.

As to `CC(C)c1ccnn1C1(C(=O)Nc2ccc(Cl)cc2OC(F)F)CCN(C[C@H](C(=O)O)[C@H]2CCOC2)CC1` [Compound 148, (2R)-3-[4-[[4-chloro-2-(difluoromethoxy)phenyl]carbamoyl]-4-(5-isopropylpyrazol-1-yl)-1-piperidyl]-2-[(3R)-tetrahydrofuran-3-yl]propanoic acid], the half-inhibitory concentration (IC50) worked out at 50.4 nM.

Consider `CC(C)c1c(F)cnn1C1(C(=O)Nc2ccc(Cl)cc2OC(F)F)CCN(CC2(C(=O)O)CCC(=O)CC2)CC1` [Compound 153, 1-[[4-[[4-chloro-2-(difluoromethoxy)phenyl]carbamoyl]-4-(4-fluoro-5-isopropyl-pyrazol-1-yl)-1-piperidyl]methyl]-4-oxo-cyclohexanecarboxylic acid], for which the IC50 came to 30.4 nM.

Turning to `CC(C)c1ccnn1C1(C(=O)Nc2ccc(Cl)cc2OC(F)F)CCN(C[C@@H](C(=O)O)c2cnn(C)c2)CC1` [Compound 155, (2S)-3-[4-[[4-chloro-2-(difluoromethoxy)phenyl]carbamoyl]-4-(5-isopropylpyrazol-1-yl)-1-piperidyl]-2-(1-methylpyrazol-4-yl)propanoic acid], the IC50 stood at 125 nM.

Regarding `COCC[C@@H](CN1CCC(C(=O)Nc2ccc(Cl)cc2OC(F)F)(n2nccc2C(C)C)CC1)C(=O)O` [Compound 156, (2S)-2-[[4-[[4-chloro-2-(difluoromethoxy)phenyl]carbamoyl]-4-(5-isopropylpyrazol-1-yl)-1-piperidyl]methyl]-4-methoxy-butanoic acid], the 50% inhibitory concentration (IC50) amounted to 49.7 nM.

With `COCC[C@H](CN1CCC(C(=O)Nc2ccc(Cl)cc2OC(F)F)(n2nccc2C(C)C)CC1)C(=O)O` [Compound 157, (2R)-2-[[4-[[4-chloro-2-(difluoromethoxy)phenyl]carbamoyl]-4-(5-isopropylpyrazol-1-yl)-1-piperidyl]methyl]-4-methoxy-butanoic acid], the IC50 amounted to 53.2 nM.

As to `CC(C)c1c(F)cnn1C1(C(=O)Nc2ccc(Cl)cc2OC(F)F)CCN(C[C@@H](C(=O)O)C2CCOCC2)CC1` [Compound 158, (2.8)-3-[4-[[4-chloro-2-(difluoromethoxy)phenyl]carbamoyl]-4-(4-fluoro-5-isopropyl-pyrazol-1-yl)-1-piperidyl]-2-tetrahydropyran-4-yl-propanoic acid], the IC50 came to 46 nM.

`CC(C)c1ccnn1C1(C(=O)Nc2ccc(Cl)cc2OC(F)F)CCN(C[C@H](C(=O)O)N2C[C@@H](C)O[C@H](C)C2)CC1` [Compound 159, (2R)-3-[4-[[4-chloro-2-(difluoromethoxy)phenyl]carbamoyl]-4-(5-isopropylpyrazol-1-yl)-1-piperidyl]-2-[(2R,6R)-2,6-dimethylmorpholin-4-yl]propanoic acid]: the IC50 is 326 nM.

As for `CC(C)c1ccnn1C1(C(=O)Nc2ccc(Cl)cc2OC(F)F)CCN(C[C@@H](C(=O)O)N2C[C@@H](C)O[C@H](C)C2)CC1` [Compound 160, (2S)-3-[4-[[4-chloro-2-(difluoromethoxy)phenyl]carbamoyl]-4-(5-isopropylpyrazol-1-yl)-1-piperidyl]-2-[(2R,6R)-2,6-dimethylmorpholin-4-yl]propanoic acid], the IC50 came out at 86.9 nM.

In the case of `CC(C)c1c(F)cnn1C1(C(=O)Nc2ccc(Cl)cc2OC(F)F)CCN(C[C@]2(C(=O)O)CC[C@H](O)CC2)CC1` [Compound 161, (1r,4r)-1-[[4-[[4-chloro-2-(difluoromethoxy)phenyl]carbamoyl]-4-(4-fluoro-S-isopropyl-pyrazol-1-yl)-1-piperidyl]methyl]-4-hydroxy-cyclohexanecarboxylic acid], the IC50 is 212 nM.

The term IC50 denotes the midpoint of a concentration-inhibition curve.
